Experimental data from patent US20070093520A1, “Method of treatment of diarrhea-predominant irritable bowel syndrome in a subject” (priority 2005, published 2007).

System: diarrhea-predominant IBS subjects
Test: 3007 Study: open-label 52-week safety study, adverse events and withdrawals
Settings: Overall

Cc1nccn1C[C@H]1CCc2c(c3cccc4c3n2CCC4)C1=O [cilansetron, (R)-(−)-4,5,6,8,9,10-hexahydro-10-[(2-methyl-1H-imidazol-1-yl)methyl]-11H-pyrido-[3,2,1-jk]-carbazol-11-one]
TEAE: Faeces Abnormal: 9 (2%) n (%)
TEAE: Faeces Hard: 6 (1%) n (%)
TEAE: Fall: 4 (<1%) n (%)
TEAE: Fatigue: 13 (2%) n (%)
TEAE: Fatigue Aggravated: 1 (<1%) n (%)
TEAE: Febrile Disorders: 3 (<1%) n (%)
TEAE: Fibroma NOS: 1 (<1%) n (%)
TEAE: Fibromyalgia: 1 (<1%) n (%)
TEAE: Flatulence: 26 (5%) n (%)
TEAE: Flatulence, Bloating and Distension: 36 (7%) n (%)
TEAE: Fluid Intake Increased: 1 (<1%) n (%)
TEAE: Fluid in Middle Ear: 1 (<1%) n (%)
TEAE: Flushing: 1 (<1%) n (%)
TEAE: Food Allergy: 1 (<1%) n (%)
TEAE: Food Poisoning NOS: 3 (<1%) n (%)
TEAE: Foot Fracture: 2 (<1%) n (%)
TEAE: Fractures and Dislocations NEC: 1 (<1%) n (%)
TEAE: Frequent Bowel Movements: 1 (<1%) n (%)
TEAE: Fungal Infection NOS: 3 (<1%) n (%)
TEAE: Fungal Infections NEC: 8 (1%) n (%)
TEAE: Gamma-Glutamyltransferase Increased: 8 (1%) n (%)
TEAE: Gastric Irritation: 1 (<1%) n (%)
TEAE: Gastritis (Excl Infective): 3 (<1%) n (%)
TEAE: Gastritis NOS: 3 (<1%) n (%)
TEAE: Gastroenteritis NOS: 9 (2%) n (%)
TEAE: Gastroenteritis Viral NOS: 11 (2%) n (%)
TEAE: Gastrointestinal Atonic and Hypomotility Disorders NEC: 133 (25%) n (%)
TEAE: Gastrointestinal Disorders: 268 (50%) n (%)
TEAE: Gastrointestinal Disorders NEC: 3 (<1%) n (%)
TEAE: Gastrointestinal Dyskinetic Disorders: 4 (<1%) n (%)
TEAE: Gastrointestinal Histopathology Procedures: 37 (7%) n (%)
TEAE: Gastrointestinal Infections - Pathogen Class Unspecified: 9 (2%) n (%)
TEAE: Gastrointestinal Inflammatory Disorders NEC: 2 (<1%) n (%)
TEAE: Gastrointestinal Motility Disorder NOS: 3 (<1%) n (%)
TEAE: Gastrointestinal Mucosal Dystrophies and Secretion Disorders: 1 (<1%) n (%)
TEAE: Gastrointestinal Signs and Symptoms NEC: 4 (<1%) n (%)
TEAE: Gastrointestinal Spastic and Hypermotility Disorders: 5 (<1%) n (%)
TEAE: Gastrointestinal and Abdominal Pains (Excl Oral and Throat): 69 (13%) n (%)
TEAE: General Disorders and Administration Site Conditions: 42 (8%) n (%)
TEAE: General Signs and Symptoms NEC: 9 (2%) n (%)
TEAE: Gilbert's Syndrome: 1 (<1%) n (%)
TEAE: Gingival Abscess: 2 (<1%) n (%)
TEAE: Gingival Atrophy: 1 (<1%) n (%)
TEAE: Gingival Disorders NEC: 3 (<1%) n (%)
TEAE: Gingival Pain: 1 (<1%) n (%)
TEAE: Gingival Pains: 1 (<1%) n (%)
TEAE: Gingivitis: 2 (<1%) n (%)
TEAE: Gingivitis Infection NOS: 1 (<1%) n (%)
TEAE: Glucose Tolerance Impaired: 1 (<1%) n (%)
TEAE: Glucose Urine Present: 1 (<1%) n (%)
TEAE: Glycosuria: 1 (<1%) n (%)
TEAE: Goitre: 1 (<1%) n (%)
TEAE: Gout: 2 (<1%) n (%)
TEAE: Groin Pain: 1 (<1%) n (%)
TEAE: Haematocrit Decreased: 1 (<1%) n (%)
TEAE: Haematoma NOS: 1 (<1%) n (%)
TEAE: Haematuria: 4 (<1%) n (%)
TEAE: Haemoglobin Decreased: 1 (<1%) n (%)
TEAE: Haemorrhoidal Haemorrhage: 4 (<1%) n (%)
TEAE: Haemorrhoids: 11 (2%) n (%)
TEAE: Haemorrhoids Aggravated: 1 (<1%) n (%)
TEAE: Haemorrhoids and Gastrointestinal Varices (Excl Oesophageal): 15 (3%) n (%)
TEAE: Halitosis: 1 (<1%) n (%)
TEAE: Hallucination NOS: 1 (<1%) n (%)
TEAE: Hallucination, Auditory: 1 (<1%) n (%)
TEAE: Hand Fracture: 1 (<1%) n (%)
TEAE: Headache NOS: 31 (6%) n (%)
TEAE: Headache NOS Aggravated: 5 (<1%) n (%)
TEAE: Headaches NEC: 39 (7%) n (%)
TEAE: Hearing Losses: 1 (<1%) n (%)
TEAE: Heart Rate Increased: 2 (<1%) n (%)
TEAE: Heart Rate and Pulse Investigations: 2 (<1%) n (%)
TEAE: Heat Exhaustion: 1 (<1%) n (%)
TEAE: Heat Injuries (Excl Thermal Burns): 1 (<1%) n (%)
TEAE: Helicobacter Pylori Antibody Positive: 1 (<1%) n (%)
TEAE: Hepatitis NOS: 1 (<1%) n (%)
TEAE: Hepatobiliary Disorders: 5 (<1%) n (%)
TEAE: Hepatobiliary Signs and Symptoms: 1 (<1%) n (%)
TEAE: Hepatocellular Damage and Hepatitis NEC: 1 (<1%) n (%)
TEAE: Hepatosplenomegaly NOS: 1 (<1%) n (%)
TEAE: Hernia NOS: 1 (<1%) n (%)
TEAE: Hernia Repair NOS: 1 (<1%) n (%)
TEAE: Hernia Repairs: 1 (<1%) n (%)
TEAE: Hernias NEC: 1 (<1%) n (%)
TEAE: Herpes Simplex: 3 (<1%) n (%)
TEAE: Herpes Simplex Aggravated: 1 (<1%) n (%)
TEAE: Herpes Viral Infections: 5 (<1%) n (%)
TEAE: Herpes Zoster: 1 (<1%) n (%)
TEAE: Hiatus Hernia: 2 (<1%) n (%)
TEAE: Hot Flushes NOS: 1 (<1%) n (%)
TEAE: Hypercholesterolaemia: 6 (1%) n (%)
TEAE: Hyperglycaemia NOS: 3 (<1%) n (%)
TEAE: Hyperglycaemic Conditions NEC: 4 (<1%) n (%)
TEAE: Hyperkeratoses: 1 (<1%) n (%)
TEAE: Hyperkeratosis: 1 (<1%) n (%)
TEAE: Hyperlipidaemia NOS: 1 (<1%) n (%)
TEAE: Hyperlipidaemias NEC: 1 (<1%) n (%)
TEAE: Hyperreflexia: 1 (<1%) n (%)
TEAE: Hypersensitivity NOS: 2 (<1%) n (%)
TEAE: Hypertension Aggravated: 2 (<1%) n (%)
TEAE: Hypertension NOS: 13 (2%) n (%)
TEAE: Hypoaesthesia: 2 (<1%) n (%)
TEAE: Hypotension NOS: 1 (<1%) n (%)
TEAE: Immune System Disorders: 9 (2%) n (%)
TEAE: Inborn Errors of Bilirubin Metabolism: 1 (<1%) n (%)
TEAE: Infected Varicose Vein: 1 (<1%) n (%)
TEAE: Infections NEC: 4 (<1%) n (%)
TEAE: Infections and Infestations: 173 (32%) n (%)
TEAE: Influenza: 18 (3%) n (%)
TEAE: Influenza Like Illness: 4 (1%) n (%)
TEAE: Influenza Viral Infections: 18 (3%) n (%)
TEAE: Ingrowing Nail: 1 (<1%) n (%)
TEAE: Inguinal Hernia NOS: 1 (<1%) n (%)
TEAE: Inguinal Hernias: 1 (<1%) n (%)
TEAE: Injury, Poisoning and Procedural Complications: 47 (9%) n (%)
TEAE: Inner Ear Disorders NEC: 1 (<1%) n (%)
TEAE: Inner Ear Infections and Inflammations: 3 (<1%) n (%)
TEAE: Inner Ear Signs and Symptoms: 3 (<1%) n (%)
TEAE: Insomnia: 5 (<1%) n (%)
TEAE: Insomnia Exacerbated: 1 (<1%) n (%)
TEAE: Intermenstrual Bleeding*: 1 (<1%) n (%)
TEAE: Intervertebral Disc Degeneration NOS: 2 (<1%) n (%)
TEAE: Intervertebral Disc Disorder NOS: 1 (<1%) n (%)
TEAE: Intervertebral Disc Disorders NEC: 5 (<1%) n (%)
TEAE: Intervertebral Disc Herniation: 4 (<1%) n (%)
TEAE: Intestinal Haemorrhages: 8 (1%) n (%)
TEAE: Intraocular Pressure Increased: 2 (<1%) n (%)
TEAE: Investigations: 126 (24%) n (%)
TEAE: Irritability: 1 (<1%) n (%)
TEAE: Irritable Bowel Syndrome: 1 (<1%) n (%)
TEAE: Irritable Bowel Syndrome Aggravated: 3 (<1%) n (%)
TEAE: Ischaemic Coronary Artery Disorders: 4 (<1%) n (%)
TEAE: Joint Related Disorders NEC: 2 (<1%) n (%)
TEAE: Joint Related Signs and Symptoms: 14 (3%) n (%)
TEAE: Joint Sprain: 4 (<1%) n (%)
TEAE: Joint Swelling: 1 (<1%) n (%)
TEAE: Kidney Infection NOS: 1 (<1%) n (%)
TEAE: Labyrinthitis NOS: 3 (<1%) n (%)
TEAE: Laceration: 6 (1%) n (%)
TEAE: Lacrimal Disorders: 2 (<1%) n (%)
TEAE: Lactose Intolerance: 1 (<1%) n (%)
TEAE: Laryngeal and Adjacent Sites Disorders NEC (Excl Infections and Neoplasms): 3 (<1%) n (%)
TEAE: Laryngitis NOS: 3 (<1%) n (%)
TEAE: Leiomyoma NOS: 1 (<1%) n (%)
TEAE: Lethargy: 1 (<1%) n (%)
TEAE: Leukopenia NOS: 2 (<1%) n (%)
TEAE: Leukopenias NEC: 2 (<1%) n (%)
TEAE: Libido Decreased: 1 (<1%) n (%)
TEAE: Lid, Lash and Lacrimal Structural Disorders (Excl Congenital): 1 (<1%) n (%)
TEAE: Ligament Sprain: 2 (<1%) n (%)
TEAE: Limb Discomfort NOS: 1 (<1%) n (%)
TEAE: Limb Injuries NEC (Incl Traumatic Amputation): 4 (<1%) n (%)
TEAE: Limb Injury NOS: 2 (<1%) n (%)
TEAE: Lip and Palate Disorders NEC: 1 (<1%) n (%)
TEAE: Lipid Metabolism Disorder NOS: 1 (<1%) n (%)
TEAE: Lipid Metabolism and Deposit Disorders NEC: 1 (<1%) n (%)
TEAE: Lipoma NOS: 2 (<1%) n (%)
TEAE: Liver Function Analyses: 23 (4%) n (%)
TEAE: Liver Function Tests NOS Abnormal: 2 (<1%) n (%)
TEAE: Localised Infection: 2 (<1%) n (%)
TEAE: Localised Osteoarthritis: 1 (<1%) n (%)
TEAE: Loss of Consciousness: 1 (<1%) n (%)
TEAE: Lower Limb Fracture NOS: 1 (<1%) n (%)
TEAE: Lower Limb Fractures and Dislocations: 3 (<1%) n (%)
TEAE: Lower Respiratory Tract Signs and Symptoms: 2 (<1%) n (%)
TEAE: Lower Respiratory Tract and Lung Infections: 28 (5%) n (%)
TEAE: Lymphadenopathy: 2 (<1%) n (%)
TEAE: Lymphangitis and Lymphatic Disorders NEC: 2 (<1%) n (%)
TEAE: Lymphocyte Count Increased: 2 (<1%) n (%)
